The target of this assay is T1, human GLP-1 receptor (Homo sapiens, UniProt P43220).
T1 construct: expressed in transfected cells
The assay is described as follows: GLP-1 receptor potency assay (cAMP ALPHASCREEN, HEK293 cells stably expressing GLP-1 R). As to conditions: cAMP response, HEK293 cells expressing human GLP-1 R. The class given is cell-based. The text has this: One useful in vitro assay for measuring GLP-1 and GLP-2 receptor activity is quantitation of cAMP, i.e. 3′-5′-cyclic adenosine monophosphate, which is a second messenger essential in many biological processes, and one of the most ubiquitous mechanisms for regulating cellular functions.
The cDNA encoding the human glucagon-like peptide 1 receptor (GLP-1 R) (primary accession number P43220) was cloned from the cDNA BC112126 (MGC:138331/IMAGE:8327594). The DNA encoding the GLP-1-R was amplified by PCR using primers encoding terminal restriction sites for subcloning. The 5′-end primers additionally encoded a near Kozak consensus sequence to ensure efficient translation. […] The PCR products encoding the GLP-1-R were subcloned into a mammalian expression vector containing a neomycin (G418) resistance marker. The mammalian expression vectors encoding the GLP-1-R were transfected into HEK293 cells by a standard calcium phosphate transfection method. 48 hours post-transfection, cells were seeded for limited dilution cloning and selected with 1 mg/ml G418 in the culture medium. Following 3 weeks in G418 selection clones were picked and tested in a functional GLP-1 receptor potency assay as described below.
The cAMP ALPHASCREEN® assay from Perkin Elmer was used to quantitate the cAMP response to activation of the GLP1 and GLP2 receptor, respectively. […] Data from test compounds eliciting an increase in the intracellular level of cAMP were normalized relative to the positive and negative control (vehicle) to calculate the EC50 and maximal response from the concentration response curve.
On the technique in general: In Alpha technology, singlet oxygen from a donor bead excites a nearby acceptor bead.

Here are results for five molecules from patent US11395847B2, “Acylated GLP-1/GLP-2 dual agonists” (Zealand Pharma A/S, priority 2016, dated 2022).

Molecules are shown by their SMILES. Where a SMILES comes first, the peptide text is derived from it.

T1 sequence (P43220 24-463): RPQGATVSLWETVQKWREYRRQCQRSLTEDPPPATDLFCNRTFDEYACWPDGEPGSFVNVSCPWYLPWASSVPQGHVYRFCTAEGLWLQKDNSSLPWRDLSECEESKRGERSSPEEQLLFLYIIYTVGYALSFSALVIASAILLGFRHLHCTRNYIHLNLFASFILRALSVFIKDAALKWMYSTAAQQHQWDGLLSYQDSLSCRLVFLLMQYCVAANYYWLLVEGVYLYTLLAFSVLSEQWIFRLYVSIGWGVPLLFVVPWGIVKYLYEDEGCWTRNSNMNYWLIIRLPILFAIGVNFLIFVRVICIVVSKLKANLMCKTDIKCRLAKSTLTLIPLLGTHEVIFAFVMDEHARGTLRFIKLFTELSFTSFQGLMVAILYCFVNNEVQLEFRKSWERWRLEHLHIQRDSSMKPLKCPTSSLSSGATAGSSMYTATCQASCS

Turning to `CC[C@H](C)[C@H](NC(=O)[C@H](CC(C)C)NC(=O)[C@H](Cc1c[nH]c2ccccc12)NC(=O)[C@H](C)NC(=O)[C@@H](NC(=O)[C@H](Cc1ccccc1)NC(=O)[C@H](CC(=O)O)NC(=O)[C@H](CCCNC(=N)N)NC(=O)[C@H](C)NC(=O)[C@H](C)NC(=O)[C@H](CCC(N)=O)NC(=O)[C@H](CCC(=O)O)NC(=O)[C@H](CC(=O)O)NC(=O)[C@H](CC(C)C)NC(=O)[C@@H](NC(=O)[C@@H](NC(=O)[C@H](C)NC(=O)[C@H](CC(C)C)NC(=O)[C@H](CCC(=O)O)NC(=O)[C@H](CO)NC(=O)[C@H](CO)NC(=O)[C@H](Cc1ccccc1)NC(=O)[C@@H](NC(=O)CNC(=O)[C@H](CCC(=O)O)NC(=O)C(C)(C)NC(=O)[C@@H](N)Cc1c[nH]cn1)[C@@H](C)O)[C@@H](C)O)[C@@H](C)CC)[C@@H](C)CC)C(=O)N[C@@H](C)C(=O)N[C@@H](Cc1c[nH]cn1)C(=O)N[C@@H](CCCCN)C(=O)N[C@H](C(=O)N[C@H](C(=O)N[C@@H](CC(=O)O)C(=O)N[C@H](CCCCN)C(=O)N[C@H](CCCCN)C(=O)N[C@H](CCCCN)C(=O)N[C@H](CCCCN)C(=O)N[C@H](CCCCN)C(=O)N[C@H](CCCCNC(=O)CC[C@H](NC(=O)CCCCCCCCCCCCCCCCC(=O)O)C(=O)O)C(N)=O)[C@@H](C)O)[C@@H](C)CC` [Compound 38] (HELM PEPTIDE1{H.[Aib].E.G.T.F.S.S.E.L.A.T.I.L.D.E.Q.A.A.R.D.F.I.A.W.L.I.A.H.K.I.T.D.[dK].[dK].[dK].[dK].[dK].[dK].[am]}|PEPTIDE2{[O=C(O)CCCCCCCCCCCCCCCCC(=O)[*:2]].[gGlu]}$PEPTIDE1,PEPTIDE2,39:R3-2:R2$$$V2.0), the EC50 (in general, the concentration that produces a half-maximal response) worked out at 0.25 nM. `CC[C@H](C)[C@H](NC(=O)[C@H](CC(C)C)NC(=O)[C@H](Cc1c[nH]c2ccccc12)NC(=O)[C@H](C)NC(=O)[C@@H](NC(=O)[C@H](Cc1ccccc1)NC(=O)[C@H](CC(=O)O)NC(=O)[C@H](CCCNC(=N)N)NC(=O)[C@H](C)NC(=O)[C@H](C)NC(=O)[C@H](CCC(N)=O)NC(=O)[C@H](CCCCNC(=O)CC[C@H](NC(=O)CCCCCCCCCCCCCCCCC(=O)O)C(=O)O)NC(=O)[C@H](CC(=O)O)NC(=O)[C@H](CC(C)C)NC(=O)[C@@H](NC(=O)[C@@H](NC(=O)[C@H](C)NC(=O)[C@H](CC(C)C)NC(=O)[C@H](CCC(=O)O)NC(=O)[C@H](CO)NC(=O)[C@H](CO)NC(=O)[C@H](Cc1ccccc1)NC(=O)[C@@H](NC(=O)CNC(=O)[C@H](CCC(=O)O)NC(=O)C(C)(C)NC(=O)[C@@H](N)Cc1c[nH]cn1)[C@@H](C)O)[C@@H](C)O)[C@@H](C)CC)[C@@H](C)CC)C(=O)N[C@@H](C)C(=O)N[C@@H](Cc1c[nH]cn1)C(=O)N[C@@H](CCCCN)C(=O)N[C@H](C(=O)N[C@H](C(=O)N[C@@H](CC(=O)O)C(=O)O)[C@@H](C)O)[C@@H](C)CC` [Compound 21] (HELM PEPTIDE1{H.[Aib].E.G.T.F.S.S.E.L.A.T.I.L.D.K.Q.A.A.R.D.F.I.A.W.L.I.A.H.K.I.T.D}|PEPTIDE2{[O=C(O)CCCCCCCCCCCCCCCCC(=O)[*:2]].[gGlu]}$PEPTIDE1,PEPTIDE2,16:R3-2:R2$$$V2.0) gave a concentration for a half-maximal effect (EC50) of 1.8 nM. For the molecule `CC[C@H](C)[C@H](NC(=O)[C@H](CC(C)C)NC(=O)[C@H](Cc1c[nH]c2ccccc12)NC(=O)[C@H](C)NC(=O)[C@@H](NC(=O)[C@H](Cc1ccccc1)NC(=O)[C@H](CC(=O)O)NC(=O)[C@H](CCCNC(=N)N)NC(=O)[C@H](C)NC(=O)[C@H](C)NC(=O)[C@H](CC(C)C)NC(=O)[C@H](CCCCNC(=O)CC[C@H](NC(=O)CCCCCCCCCCCCCCCCC(=O)O)C(=O)O)NC(=O)[C@H](CC(=O)O)NC(=O)[C@H](CC(C)C)NC(=O)[C@@H](NC(=O)[C@@H](NC(=O)[C@H](C)NC(=O)[C@H](CC(C)C)NC(=O)[C@H](CCC(=O)O)NC(=O)[C@H](CO)NC(=O)[C@@H](NC(=O)[C@H](Cc1ccccc1)NC(=O)[C@@H](NC(=O)CNC(=O)[C@H](CCC(=O)O)NC(=O)C(C)(C)NC(=O)[C@@H](N)Cc1c[nH]cn1)[C@@H](C)O)[C@@H](C)O)[C@@H](C)O)[C@@H](C)CC)[C@@H](C)CC)C(=O)N[C@@H](C)C(=O)N[C@@H](Cc1c[nH]cn1)C(=O)N[C@@H](CCCCN)C(=O)N[C@H](C(=O)N[C@H](C(=O)N[C@@H](CC(=O)O)C(=O)O)[C@@H](C)O)[C@@H](C)CC` [Compound 15] (HELM PEPTIDE1{H.[Aib].E.G.T.F.T.S.E.L.A.T.I.L.D.K.L.A.A.R.D.F.I.A.W.L.I.A.H.K.I.T.D}|PEPTIDE2{[O=C(O)CCCCCCCCCCCCCCCCC(=O)[*:2]].[gGlu]}$PEPTIDE1,PEPTIDE2,16:R3-2:R2$$$V2.0), a half-maximal effect (EC50) was put at 0.25 nM.

`CC[C@H](C)[C@H](NC(=O)[C@H](Cc1ccccc1)NC(=O)[C@H](CC(=O)O)NC(=O)[C@H](CCCNC(=N)N)NC(=O)[C@H](C)NC(=O)[C@H](C)NC(=O)[C@H](CCC(N)=O)NC(=O)[C@H](CCCCNC(=O)COCCOCCNC(=O)[C@H](CCCCN)NC(=O)[C@H](CCC(=O)O)NC(=O)[C@H](CCCCN)NC(=O)CC[C@H](NC(=O)CCCCCCCCCCCCCCCCCCC(=O)O)C(=O)O)NC(=O)[C@H](CC(=O)O)NC(=O)[C@H](CC(C)C)NC(=O)[C@@H](NC(=O)[C@@H](NC(=O)[C@H](C)NC(=O)[C@H](CC(C)C)NC(=O)[C@H](CCC(=O)O)NC(=O)[C@H](CO)NC(=O)[C@@H](NC(=O)[C@H](Cc1ccccc1)NC(=O)[C@@H](NC(=O)CNC(=O)[C@H](CCC(=O)O)NC(=O)C(C)(C)NC(=O)[C@@H](N)Cc1c[nH]cn1)[C@@H](C)O)[C@@H](C)O)[C@@H](C)O)[C@@H](C)CC)C(=O)N[C@@H](C)C(=O)N[C@@H](Cc1c[nH]c2ccccc12)C(=O)N[C@@H](CC(C)C)C(=O)N[C@H](C(=O)N[C@@H](CCC(N)=O)C(=O)N[C@@H](Cc1c[nH]cn1)C(=O)N[C@@H](CCCCN)C(=O)N[C@H](C(=O)N[C@H](C(=O)N[C@@H](CC(=O)O)C(=O)O)[C@@H](C)O)[C@@H](C)CC)[C@@H](C)CC` [Compound 52] (HELM PEPTIDE1{H.[Aib].E.G.T.F.T.S.E.L.A.T.I.L.D.K.Q.A.A.R.D.F.I.A.W.L.I.Q.H.K.I.T.D}|PEPTIDE2{[O=C(O)CCCCCCCCCCCCCCCCCCC(=O)[*:2]].[gGlu].K.E.K.[O=C(COCCOCCN[*:1])[*:2]]}$PEPTIDE1,PEPTIDE2,16:R3-6:R2$$$V2.0) displayed a half-maximal effective concentration (EC50) of 0.02 nM. Then `CC[C@H](C)[C@H](NC(=O)[C@H](Cc1ccccc1)NC(=O)[C@H](CC(=O)O)NC(=O)[C@H](CCCNC(=N)N)NC(=O)[C@H](C)NC(=O)[C@H](C)NC(=O)[C@H](CCC(N)=O)NC(=O)[C@H](CCCCNC(=O)COCCOCCNC(=O)[C@H](CCCCN)NC(=O)[C@H](CCC(=O)O)NC(=O)[C@H](CCCCN)NC(=O)CC[C@H](NC(=O)CCCCCCCCCCCCCCCCC(=O)O)C(=O)O)NC(=O)[C@H](CC(=O)O)NC(=O)[C@H](CC(C)C)NC(=O)[C@@H](NC(=O)[C@@H](NC(=O)[C@H](C)NC(=O)[C@H](CC(C)C)NC(=O)[C@H](CCC(=O)O)NC(=O)[C@H](CO)NC(=O)[C@H](CO)NC(=O)[C@H](Cc1ccccc1)NC(=O)[C@@H](NC(=O)CNC(=O)[C@H](CCC(=O)O)NC(=O)C(C)(C)NC(=O)[C@@H](N)Cc1c[nH]cn1)[C@@H](C)O)[C@@H](C)O)[C@@H](C)CC)C(=O)N[C@@H](C)C(=O)N[C@@H](Cc1c[nH]c2ccccc12)C(=O)N[C@@H](CC(C)C)C(=O)N[C@H](C(=O)N[C@@H](CCC(=O)O)C(=O)N[C@@H](Cc1c[nH]cn1)C(=O)N[C@@H](CCCCN)C(=O)N[C@H](C(=O)N[C@H](C(=O)N[C@@H](CC(=O)O)C(=O)O)[C@@H](C)O)[C@@H](C)CC)[C@@H](C)CC` [Compound 49] (HELM PEPTIDE1{H.[Aib].E.G.T.F.S.S.E.L.A.T.I.L.D.K.Q.A.A.R.D.F.I.A.W.L.I.E.H.K.I.T.D}|PEPTIDE2{[O=C(O)CCCCCCCCCCCCCCCCC(=O)[*:2]].[gGlu].K.E.K.[O=C(COCCOCCN[*:1])[*:2]]}$PEPTIDE1,PEPTIDE2,16:R3-6:R2$$$V2.0), with 0.27 nM.
